Assay results taken from US20260265265A1, “NOVEL BENZIMIDAZOLONE DERIVATIVE COMPOUND AS AUTOTAXIN INHIBITOR” (LG CHEM, LTD., priority 2023, published 2026).

target: T1, Recombinant Human ENPP-2/Autotaxin (Homo sapiens, UniProt Q13822); test: LysoPLD activity measurement (autotaxin enzyme inhibition, choline release, TOOS reagent); type: biochemical; conditions: LysoPLD inhibitory activity; substrate 14:0 LysoPC; absorbance at 555 nm
T1 construct: purchased R&D systems 5255-EN
Summary of the method: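 Enzyme and compound were preincubated for 30 min before adding 14:0 LysoPC substrate, diluted to 300 μM, for 90 minutes at 37° C. The choline product was quantified colorimetrically with TOOS reagent. Wells without compound held 1% DMSO.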

First: O=C(O)c1cc(F)cc(C2(n3c(=O)n(-c4ccc(C5CCOCC5)cc4)c4cc(Cl)cnc43)CC2)c1 [Example 273, 3-(1-(6-chloro-2-oxo-1-(4-(tetrahydro-2H-pyran-4-yl)phenyl)-1,2-dihydro-3H-imidazo[4,5-b]pyridin-3-yl)cyclopropyl)-5-fluorobenzoic acid]
Second: O=C(O)c1cc(F)cc(C2(n3c(=O)n(-c4ccc(N5CCOCC5)cc4)c4cc(Cl)cnc43)CC2)c1 [Example 274, 3-(1-(6-chloro-1-(4-morpholinophenyl)-2-oxo-1,2-dihydro-3H-imidazo[4,5-b]pyridin-3-yl)cyclopropyl)-5-fluorobenzoic acid]
The IC50 of the first is higher: 10 to 100 nM for the first, < 10 nM for the second.

O=C(O)c1cc(F)cc(C2(n3c(=O)n(-c4ccc(C(=O)N5CC6(CCOCC6)C5)cc4)c4cc(Cl)cnc43)CC2)c1 [Example 275, 3-(1-(1-(4-(7-oxa-2-azaspiro[3.5]nonane-2-carbonyl)phenyl)-6-chloro-2-oxo-1,2-dihydro-3H-imidazo[4,5-b]pyridin-3-yl)cyclopropyl)-5-fluorobenzoic acid] and O=C(O)c1cc(F)cc(C2(n3c(=O)n(-c4ccc(C(=O)N5CCCC5)cc4)c4cc(Cl)cnc43)CC2)c1 [Example 276, 3-(1-(6-chloro-2-oxo-1-(4-(pyrrolidine-1-carbonyl)phenyl)-1,2-dihydro-3H-imidazo[4,5-b]pyridin-3-yl)cyclopropyl)-5-fluorobenzoic acid] cannot be ordered by IC50: < 10 nM for the first, < 10 nM for the second.
